Test results taken from patent US11844806B2 (Asamedic AS, priority 2017, dated 2023).

Assays:
[1] = pH of the solution after dissolution of ASA; assay type: physicochemical; conditions: for Measured pH of the solutions after dissolution of ASA: 300 mg ASA
Procedure: (§1) The cap comprising the powder compartment and the cutting element was assembled with the container comprising the solution.
(§2) The cap was then turned down until the seal keeping the powder and the solution separately was broken by the cutting element. […] The device was then shaken until all ASA was dissolved.
Further aqueous solutions of salts of phosphoric acid were prepared. These phosphoric acid salt solutions were prepared in order to test the dissolution time of ASA at different final pH values i.e. the pH in the final ASA solution that are to be taken by the patient. Thus, the amount (mg) of the salt of phosphoric acid to be used was calculated based on the final pH to be obtained (theoretically pH).
(§3) The solution was then shaken until all ASA was dissolved. A light-yellow coloring of the solution was observed.
(§4) After releasing the ASA and sodium carbonate into the water, the solution was shaken until all ASA was dissolved.

[2] = Dissolution of ASA on mixing with phosphate salt solution or water, shaken in the two component device; assay type: physicochemical
Procedure: as §1, §2, §3, §4

Question: What does the source list for CC(=O)Oc1ccccc1C(=O)O [ASA, acetylsalicylic acid]?
Answer: pH of the solutions after dissolution of ASA and the carbonate salt ([1]; 300 mg ASA and 258-263 mg Na2CO3 in 15 ml pure water, Example 7): 9.41-9.43; Measured pH of the solutions after dissolution of ASA ([1]; 422 mg Na3PO4•12H2O in 15 ml, theoretical pH 7.2): 7.6; Measured pH of the solutions after dissolution of ASA ([1]; 474 mg Na2HPO4 in 15 ml, theoretical pH 7.2): 7.0; Measured pH of the solutions after dissolution of ASA ([1]; 1730 mg Na2HPO4 in 15 ml, theoretical pH 8.0): 7.7; pH of the solution after dissolution of ASA and the hydrogen phosphate salt ([1]; 300 mg crushed ASA and 1000 mg crushed Na2HPO4 in 15 ml pure water, Example 3): 7; pH of the solution after dissolution of ASA and the phosphate salt ([1]; 304 mg ASA and 610 mg Na3PO4 in 15 ml pure water, Example 5): 10.72; Time before ASA was dissolved ([2]; 300 mg ASA and 258-263 mg Na2CO3 released together into 15 ml pure water, test device, Example 7 (carbonate comparison)): approx. 120 sec.; Time in which ASA is dissolved in the Na2HPO4 solutions ([2]; 300 mg ASA, 15 ml, pH in the final solution set between approximately 7 to 8 (summary of table 2)): ≤ 25 s; Time in which ASA is dissolved in the Na3PO4.12H2O solution ([2]; 300 mg ASA, 15 ml, pH in the final solution set to approximately 7 (summary of table 3)): ≤ 25 s; Time until all ASA was dissolved ([2]; 300 mg crushed ASA and 1000 mg crushed Na2HPO4 released together into 15 ml pure water, test device, Example 3): ≤ 30 s; Time until all ASA was dissolved ([2]; 304 mg ASA and 610 mg Na3PO4 released at the same time into 15 ml pure water, Example 5): ≤ 30 s; 300 mg ASA in 15 ml solution dissolved within 25 seconds ([2]; 422 mg (1.11 · 10^−3 mol) Na3PO4•12H2O in 15 ml, theoretical pH 7.2): yes; 300 mg ASA in 15 ml solution dissolved within 25 seconds ([2]; 474 mg (3.34 · 10^−3 mol) Na2HPO4 in 15 ml, theoretical pH 7.2): Yes; 300 mg ASA in 15 ml solution dissolved within 25 seconds ([2]; 950 mg (6.67 · 10^−3 mol) Na2HPO4 in 15 ml, theoretical pH 7.7): Yes; 300 mg ASA in 15 ml solution dissolved within 25 seconds ([2]; 1730 mg (1.21 · 10^−2 mol) Na2HPO4 in 15 ml, theoretical pH 8.0): Yes
